Measured values as given in patent publication US10314806B2 (SICHUAN JIUZHANG BIOLOGICAL SCIENCE AND TECHNOLOGY CO., LTD., priority 2014, dated 2019).

What was measured:
EMT-6 breast cancer = test: Inhibition of BABLc mice-transplanted tumor of EMT-6 breast cancer; type: in vivo; settings: for Inhibitory rate / Tumor weight: 9 days
Description: (1) Animal BABLc mice, ♀, body weight 17˜21 g
Cell Lines EMT-6 cell lines were mice breast cancer cells, and grew adhering to the wall in RPMI-1640 complete media containing 10% calf serum, 1 mmol/L glutamine, 100 U·ml^−1 penicillin and 100 μg·ml^−1 streptomycin, and were cultured in an incubator at 37° C. under 5% CO2, followed by changing the medium and subculturing every two or three days.
(§1) Viable cells were counted by trypan blue staining. Cell suspension was subcutaneously inoculated at the left forelimb armpit of mice at 0.2 ml/animal (containing about 1×10^7 cells), and after tumor grew to 1 cm×1 cm×1 cm, mice were used in experiment. Mice tumors were aseptically stripped, and washed with Hank's solution thrice, to remove blood, fat and necrotic tissues. Tumors were cut to broken pieces of 1 mm×1 mm×1 mm, and washed with Hank's solution twice, to which physiological saline was added at a ratio of (1 g:3 ml), and then ground in a glass homogenizer and filtered by 80-100 mesh sieve to make a suspension of single cell. Viable cells were counted by trypan blue staining.
(§2) On the second day after inoculation, a dosage of 0.2 ml·10 g^−1 was administrated to each group by intraperitoneal injection (ip) for successive 9 days, once a day. When the tumor weight in negative group was more than 1.0 g(tumor volume being about 0.5 cm^3), the experiment was stopped, and mice were sacrificed by cervical vertebrae removal and weighed. Tumors were stripped to calculate inhibitory rate.

[1] = test system: chemical liver injury (rat alcoholic fatty liver model); test: Protective effect on chemical liver injury (rat alcoholic fatty liver model); type: in vivo, rats; settings: for GSH / SOD / AST / MDA / ALT: 30 days; for GSH / SOD / MDA: liver homogenate; for AST / ALT: serum
Description: Experimental grouping and dose design: Female SD rats were randomly divided to groups, 10 rats for each group, […], 70 mg·kg^−1, 85 mg·kg^−1, 100 mg·kg^−1, 120 mg·kg^−1, 140 mg·kg^−1, 160 mg·kg^−1, 180 mg·kg^−1, […], together with a negative control group and 50% ethanol model control group. Liver injury model was induced by ethanol (analytical pure).
Determination of ALT, AST, TG in serum of rats; Determination of SOD, MDA, reduced glutathione (GSH) in liver homogenate.
Statistics of experimental data: Statistical analysis of experimental data was performed using software package of SPSS 19.0 for windows.

Lewis lung cancer = test: Inhibition of mice-transplanted tumor of Lewis lung cancer C57BL/6; type: in vivo; settings: for Inhibitory rate / Tumor weight: 12 times
Description: Animal C57BL/6 mice, body weight 13˜20 g, half male and half female.
Cell Lines Lewis cells were mice lung cancer cells, and grew adhering to the wall in RPMI-1640 media containing 10% calf serum, 100 U·ml^−1 penicillin, 100 μg·ml^−1 streptomycin, and were cultured in an incubator at 37° C. under 5% CO2, followed by changing the medium and subculturing every two or three days.
as §1
as §2, with “peritoneal” for “intraperitoneal”, “12 times,” for “9 days,”, “negative control” for “negative”, “g (tumor” for “g(tumor”

[2] = compared with the negative control group, obvious in the dosage groups of 10 mg/kg-60 mg/kg

Compound: O=C(/C=C/c1ccc(O)c(O)c1)O[C@@H]1C[C@](O)(C(=O)O)C[C@@H](O)[C@H]1O [Chlorogenic acid of the present invention]
- Inhibitory rate (EMT-6 breast cancer; 1 mg·kg^−1 ip once a day): 26.40%
- Tumor weight (EMT-6 breast cancer; 1 mg·kg^−1 ip once a day): 0.987 ± 0.154 g
- Inhibitory rate (EMT-6 breast cancer; 5 mg·kg^−1 ip once a day): 41.16%
- Tumor weight (EMT-6 breast cancer; 5 mg·kg^−1 ip once a day): 0.789 ± 0.087 g
- Inhibitory rate (EMT-6 breast cancer; 10 mg·kg^−1 ip once a day): 48.55%
- Tumor weight (EMT-6 breast cancer; 10 mg·kg^−1 ip once a day): 0.690 ± 0.188 g
- Inhibitory rate (EMT-6 breast cancer; 20 mg·kg^−1 ip once a day): 69.95%
- Inhibitory rate (EMT-6 breast cancer; 30 mg·kg^−1 ip once a day): 68.01%
- Inhibitory rate (EMT-6 breast cancer; 40 mg·kg^−1 ip once a day): 66.37%
- Tumor weight (EMT-6 breast cancer; 40 mg·kg^−1 ip once a day): 0.451 ± 0.097 g
- Inhibitory rate (EMT-6 breast cancer; 50 mg·kg^−1 ip once a day): 60.55%
- Tumor weight (EMT-6 breast cancer; 50 mg·kg^−1 ip once a day): 0.529 ± 0.168 g
- Inhibitory rate (EMT-6 breast cancer; 60 mg·kg^−1 ip once a day): 49.22%
- Tumor weight (EMT-6 breast cancer; 60 mg·kg^−1 ip once a day): 0.681 ± 0.156 g
- Inhibitory rate (EMT-6 breast cancer; 70 mg·kg^−1 ip once a day): 47.95%
- Tumor weight (EMT-6 breast cancer; 70 mg·kg^−1 ip once a day): 0.698 ± 0.112 g
- Inhibitory rate (EMT-6 breast cancer; 80 mg·kg^−1 ip once a day): 41.16%
- Tumor weight (EMT-6 breast cancer; 80 mg·kg^−1 ip once a day): 0.789 ± 0.087 g
- Inhibitory rate (EMT-6 breast cancer; 90 mg·kg^−1 ip once a day): 35.94%
- Tumor weight (EMT-6 breast cancer; 90 mg·kg^−1 ip once a day): 0.859 ± 0.0754 g
- Inhibitory rate (EMT-6 breast cancer; 100 mg·kg^−1 ip once a day): 25.80%
- Tumor weight (EMT-6 breast cancer; 100 mg·kg^−1 ip once a day): 0.995 ± 0.0256 g
- inhibitory action on BABLc mice-transplanted tumor of EMT-6 (EMT-6 breast cancer; [2]): obviously inhibitory action
- GSH ([1]; 10 mg·kg^−1 intragastric): 13.02 ± 1.23 mg/g
- SOD ([1]; 10 mg·kg^−1 intragastric): 28.12 ± 3.25 nmol/mg
- AST ([1]; 10 mg·kg^−1 intragastric): 189.54 ± 4.87 U/L
- GSH ([1]; 20 mg·kg^−1 intragastric): 18.98 ± 2.14 mg/g
- MDA ([1]; 20 mg·kg^−1 intragastric): 5.15 ± 0.21 U/mg
- SOD ([1]; 20 mg·kg^−1 intragastric): 36.45 ± 2.47 nmol/mg
- AST ([1]; 20 mg·kg^−1 intragastric): 178.54 ± 6.15 U/L
- GSH ([1]; 35 mg·kg^−1 intragastric): 19.21 ± 1.45 mg/g
- MDA ([1]; 35 mg·kg^−1 intragastric): 5.14 ± 0.47 U/mg
- SOD ([1]; 35 mg·kg^−1 intragastric): 37.27 ± 3.25 nmol/mg
- AST ([1]; 35 mg·kg^−1 intragastric): 168.54 ± 4.31 U/L
- GSH ([1]; 50 mg·kg^−1 intragastric): 22.14 ± 2.41 mg/g
- MDA ([1]; 50 mg·kg^−1 intragastric): 4.12 ± 0.65 U/mg
- SOD ([1]; 50 mg·kg^−1 intragastric): 38.24 ± 2.75 nmol/mg
- ALT ([1]; 50 mg·kg^−1 intragastric): 40.12 ± 3.15 U/L
- AST ([1]; 50 mg·kg^−1 intragastric): 139.21 ± 5.14 U/L
- GSH ([1]; 70 mg·kg^−1 intragastric): 22.87 ± 2.47 mg/g
- MDA ([1]; 70 mg·kg^−1 intragastric): 4.56 ± 0.78 U/mg
- SOD ([1]; 70 mg·kg^−1 intragastric): 38.75 ± 3.21 nmol/mg
- ALT ([1]; 70 mg·kg^−1 intragastric): 38.48 ± 2.47 U/L
- AST ([1]; 70 mg·kg^−1 intragastric): 127.54 ± 6.54 U/L
- GSH ([1]; 85 mg·kg^−1 intragastric): 23.01 ± 1.58 mg/g
- MDA ([1]; 85 mg·kg^−1 intragastric): 4.32 ± 0.46 U/mg
- SOD ([1]; 85 mg·kg^−1 intragastric): 40.14 ± 6.12 nmol/mg
- ALT ([1]; 85 mg·kg^−1 intragastric): 35.47 ± 2.46 U/L
- AST ([1]; 85 mg·kg^−1 intragastric): 119.25 ± 6.89 U/L
- GSH ([1]; 100 mg·kg^−1 intragastric): 23.48 ± 1.78 mg/g
- MDA ([1]; 100 mg·kg^−1 intragastric): 4.08 ± 0.85 U/mg
- SOD ([1]; 100 mg·kg^−1 intragastric): 41.56 ± 4.32 nmol/mg
- ALT ([1]; 100 mg·kg^−1 intragastric): 33.14 ± 1.89 U/L
- AST ([1]; 100 mg·kg^−1 intragastric): 126.89 ± 4.21 U/L
- GSH ([1]; 120 mg·kg^−1 intragastric): 23.98 ± 2.14 mg/g
- MDA ([1]; 120 mg·kg^−1 intragastric): 3.89 ± 0.42 U/mg
- SOD ([1]; 120 mg·kg^−1 intragastric): 42.87 ± 3.15 nmol/mg
- ALT ([1]; 120 mg·kg^−1 intragastric): 39.85 ± 2.41 U/L
- AST ([1]; 120 mg·kg^−1 intragastric): 138.84 ± 5.15 U/L
- GSH ([1]; 140 mg·kg^−1 intragastric): 24.35 ± 1.58 mg/g
- MDA ([1]; 140 mg·kg^−1 intragastric): 3.57 ± 0.64 U/mg
- SOD ([1]; 140 mg·kg^−1 intragastric): 44.78 ± 2.31 nmol/mg
- ALT ([1]; 140 mg·kg^−1 intragastric): 40.08 ± 2.78 U/L
- AST ([1]; 140 mg·kg^−1 intragastric): 140.54 ± 6.12 U/L
- GSH ([1]; 160 mg·kg^−1 intragastric): 20.01 ± 1.47 mg/g
- MDA ([1]; 160 mg·kg^−1 intragastric): 4.05 ± 0.25 U/mg
- SOD ([1]; 160 mg·kg^−1 intragastric): 38.56 ± 2.45 nmol/mg
- AST ([1]; 160 mg·kg^−1 intragastric): 157.98 ± 5.27 U/L
- GSH ([1]; 180 mg·kg^−1 intragastric): 19.87 ± 2.84 mg/g
- MDA ([1]; 180 mg·kg^−1 intragastric): 4.98 ± 0.87 U/mg
- SOD ([1]; 180 mg·kg^−1 intragastric): 37.25 ± 4.27 nmol/mg
- AST ([1]; 180 mg·kg^−1 intragastric): 168.12 ± 4.89 U/L
- GSH ([1]; 200 mg·kg^−1 intragastric): 19.01 ± 1.58 mg/g
- MDA ([1]; 200 mg·kg^−1 intragastric): 5.45 ± 0.24 U/mg
- SOD ([1]; 200 mg·kg^−1 intragastric): 36.25 ± 2.87 nmol/mg
- AST ([1]; 200 mg·kg^−1 intragastric): 177.56 ± 4.25 U/L
- GSH ([1]; 220 mg·kg^−1 intragastric): 17.24 ± 1.89 mg/g
- SOD ([1]; 220 mg·kg^−1 intragastric): 30.12 ± 2.14 nmol/mg
- AST ([1]; 220 mg·kg^−1 intragastric): 189.98 ± 5.67 U/L
- inhibitory action on chemical liver injury ([1]; dosage of 50 mg/kg-140 mg/kg had the most obvious effect): obviously inhibitory action
- Inhibitory rate (Lewis lung cancer; 1 mg·kg^−1 ip once a day): 2.6%
- Tumor weight (Lewis lung cancer; 1 mg·kg^−1 ip once a day): 1.445 ± 0.772 g
- Inhibitory rate (Lewis lung cancer; 5 mg·kg^−1 ip once a day): 14.2%
- Tumor weight (Lewis lung cancer; 5 mg·kg^−1 ip once a day): 1.273 ± 0.258 g
- Inhibitory rate (Lewis lung cancer; 10 mg·kg^−1 ip once a day): 56.5%
- Tumor weight (Lewis lung cancer; 10 mg·kg^−1 ip once a day): 0.646 ± 0.230 g
- Inhibitory rate (Lewis lung cancer; 20 mg·kg^−1 ip once a day): 74.6%
- Inhibitory rate (Lewis lung cancer; 30 mg·kg^−1 ip once a day): 78.3%
- Tumor weight (Lewis lung cancer; 30 mg·kg^−1 ip once a day): 0.322 ± 0.111 g
- Inhibitory rate (Lewis lung cancer; 40 mg·kg^−1 ip once a day): 76.4%
- Tumor weight (Lewis lung cancer; 40 mg·kg^−1 ip once a day): 0.350 ± 0.078 g
- Inhibitory rate (Lewis lung cancer; 50 mg·kg^−1 ip once a day): 65.6%
- Tumor weight (Lewis lung cancer; 50 mg·kg^−1 ip once a day): 0.510 ± 0.241 g
- Inhibitory rate (Lewis lung cancer; 60 mg·kg^−1 ip once a day): 59.2%
- Tumor weight (Lewis lung cancer; 60 mg·kg^−1 ip once a day): 0.605 ± 0.363 g
- Inhibitory rate (Lewis lung cancer; 70 mg·kg^−1 ip once a day): 32.3%
- Tumor weight (Lewis lung cancer; 70 mg·kg^−1 ip once a day): 1.005 ± 0.657 g
- Inhibitory rate (Lewis lung cancer; 80 mg·kg^−1 ip once a day): 24.8%
- Inhibitory rate (Lewis lung cancer; 90 mg·kg^−1 ip once a day): 17.6%
- Tumor weight (Lewis lung cancer; 90 mg·kg^−1 ip once a day): 1.223 ± 0.314 g
- Inhibitory rate (Lewis lung cancer; 100 mg·kg^−1 ip once a day): 11.3%
- Tumor weight (Lewis lung cancer; 100 mg·kg^−1 ip once a day): 1.316 ± 0.352 g
- inhibitory action on mice-transplanted tumor of Lewis lung cancer C57BL/6 (Lewis lung cancer; [2]): obviously inhibitory action
